The values below come from ChEMBL document CHEMBL1151572, “Non-glycosidic/non-aminoalkyl-substituted indolocarbazoles as inhibitors of protein kinase C” (Bioorg Med Chem Lett, 1993).

The target in one assay is Protein kinase C (PKC). The assay can be described thus: In vitro for inhibitory activity against protein kinase C from rat brain.
The target of assay [1] is T1, cGMP-dependent protein kinase 1 (Bos taurus, UniProt P00516).
T1 sequence (P00516 whole entry): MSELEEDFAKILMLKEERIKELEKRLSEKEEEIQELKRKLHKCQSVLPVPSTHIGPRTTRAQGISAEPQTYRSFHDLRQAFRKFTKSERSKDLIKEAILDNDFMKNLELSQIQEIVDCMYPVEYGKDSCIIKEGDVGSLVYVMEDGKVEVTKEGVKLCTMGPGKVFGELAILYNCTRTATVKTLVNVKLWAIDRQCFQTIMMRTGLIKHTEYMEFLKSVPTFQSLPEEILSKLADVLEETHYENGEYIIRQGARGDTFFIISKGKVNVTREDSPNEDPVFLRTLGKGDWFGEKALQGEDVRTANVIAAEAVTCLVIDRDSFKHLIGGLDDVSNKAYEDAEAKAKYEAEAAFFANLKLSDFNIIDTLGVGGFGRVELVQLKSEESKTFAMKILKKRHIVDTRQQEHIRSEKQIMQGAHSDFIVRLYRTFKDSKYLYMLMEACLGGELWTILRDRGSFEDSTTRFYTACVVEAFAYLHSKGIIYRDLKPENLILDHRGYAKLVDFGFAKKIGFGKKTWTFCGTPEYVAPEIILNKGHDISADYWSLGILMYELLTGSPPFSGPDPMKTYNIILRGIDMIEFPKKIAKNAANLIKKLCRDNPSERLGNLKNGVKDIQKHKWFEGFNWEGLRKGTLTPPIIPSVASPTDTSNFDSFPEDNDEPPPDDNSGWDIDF
The assay can be described thus: In vitro for inhibitory activity against cGMP-dependent protein kinase from bovine lung (G-kinase).

Assay [2] addresses cAMP-dependent protein kinase catalytic subunit alpha (Bos taurus, UniProt P00517). Kind of assay: In vitro for inhibitory activity against cAMP-dependent protein kinase from bovine heart (A-kinase).
In assay [3] the target is Myosin light chain kinase, smooth muscle (Gallus gallus, UniProt P11799). The assay can be described thus: In vitro for inhibitory activity against myosin light-chain kinase from chicken gizzard (M-kinase).
The subject of a further assay is Splenocyte. The assay can be described thus: In vitro for inhibitory activity against tyrosine specific protein kinase from murine spleen cells (T-kinase). The assay is classed as functional, cell-based. To be noted: Mus musculus.

The structures appear in SMILES notation.

Sequence of Myosin light chain kinase, smooth muscle (P11799 whole entry): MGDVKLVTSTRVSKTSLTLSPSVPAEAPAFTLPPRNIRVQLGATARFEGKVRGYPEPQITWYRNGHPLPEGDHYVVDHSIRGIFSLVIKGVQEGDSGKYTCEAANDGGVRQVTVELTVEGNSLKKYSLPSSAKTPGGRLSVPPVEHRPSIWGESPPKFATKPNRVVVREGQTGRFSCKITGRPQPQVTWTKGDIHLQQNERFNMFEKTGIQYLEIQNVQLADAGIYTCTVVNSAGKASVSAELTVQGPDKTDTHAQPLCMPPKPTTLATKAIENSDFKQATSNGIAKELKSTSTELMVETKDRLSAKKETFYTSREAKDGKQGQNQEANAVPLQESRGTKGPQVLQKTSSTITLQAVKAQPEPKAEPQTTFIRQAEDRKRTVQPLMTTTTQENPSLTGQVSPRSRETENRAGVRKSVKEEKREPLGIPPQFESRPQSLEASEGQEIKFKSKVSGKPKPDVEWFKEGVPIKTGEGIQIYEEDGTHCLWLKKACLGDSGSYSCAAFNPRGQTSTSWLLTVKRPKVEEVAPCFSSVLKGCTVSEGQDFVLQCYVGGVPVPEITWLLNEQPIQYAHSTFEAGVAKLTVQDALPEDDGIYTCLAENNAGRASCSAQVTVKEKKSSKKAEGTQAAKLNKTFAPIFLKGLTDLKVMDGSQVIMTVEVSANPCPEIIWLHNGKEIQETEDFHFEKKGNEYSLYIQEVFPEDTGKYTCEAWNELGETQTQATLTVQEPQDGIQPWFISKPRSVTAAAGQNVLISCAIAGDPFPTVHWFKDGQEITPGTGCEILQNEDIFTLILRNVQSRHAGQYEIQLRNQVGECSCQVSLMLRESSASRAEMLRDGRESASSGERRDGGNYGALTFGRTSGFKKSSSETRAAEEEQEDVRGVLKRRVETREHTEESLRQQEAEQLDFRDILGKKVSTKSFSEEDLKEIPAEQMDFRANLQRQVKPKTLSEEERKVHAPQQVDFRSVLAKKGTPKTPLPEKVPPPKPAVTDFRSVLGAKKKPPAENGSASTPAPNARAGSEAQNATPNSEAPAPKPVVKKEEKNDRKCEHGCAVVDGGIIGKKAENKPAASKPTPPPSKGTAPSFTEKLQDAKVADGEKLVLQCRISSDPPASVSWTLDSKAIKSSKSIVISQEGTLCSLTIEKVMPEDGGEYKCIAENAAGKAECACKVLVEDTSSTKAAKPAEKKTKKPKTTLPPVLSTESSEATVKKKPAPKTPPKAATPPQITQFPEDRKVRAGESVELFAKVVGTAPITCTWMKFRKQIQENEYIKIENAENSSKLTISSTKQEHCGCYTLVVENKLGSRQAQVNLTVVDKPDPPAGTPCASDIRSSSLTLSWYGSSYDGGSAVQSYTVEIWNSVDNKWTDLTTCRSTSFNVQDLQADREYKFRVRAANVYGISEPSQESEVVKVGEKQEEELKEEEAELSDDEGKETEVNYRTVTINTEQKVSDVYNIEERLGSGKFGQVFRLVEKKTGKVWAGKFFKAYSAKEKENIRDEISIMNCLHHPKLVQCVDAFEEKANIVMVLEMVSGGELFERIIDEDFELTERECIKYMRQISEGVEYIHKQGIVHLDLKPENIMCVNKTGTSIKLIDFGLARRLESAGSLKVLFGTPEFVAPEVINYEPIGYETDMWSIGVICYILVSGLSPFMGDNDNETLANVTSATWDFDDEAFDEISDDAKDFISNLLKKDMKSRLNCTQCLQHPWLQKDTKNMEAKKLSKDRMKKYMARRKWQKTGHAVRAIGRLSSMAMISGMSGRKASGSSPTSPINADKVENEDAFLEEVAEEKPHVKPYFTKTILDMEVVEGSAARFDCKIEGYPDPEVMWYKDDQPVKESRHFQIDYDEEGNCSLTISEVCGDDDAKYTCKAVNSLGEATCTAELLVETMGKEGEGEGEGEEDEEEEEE

Take `O=C1NCc2c1c1c3ccccc3[nH]c1c1c2c2ccccc2n1CC(O)CO` (configuration not stated): the 50% inhibitory concentration (IC50) came out at 0.099 µM at Protein kinase C (PKC), 280 nM in assay [1], 4.8 µM in assay [2] and 390 nM in assay [3].

Take `N#CCCn1c2ccccc2c2c3c(c4c5ccccc5[nH]c4c21)C(=O)NC3`: the IC50 at Protein kinase C (PKC) was 0.075 µM; in assay [1] it was 320 nM; in assay [2], above 10 µM; in assay [3], 500 nM.

On to `CCCn1c2ccccc2c2c3c(c4c5ccccc5n(CCC)c4c21)C(=O)NC3`, for which, on Protein kinase C (PKC), the IC50 was found to be 8.1 µM.

`CC(C)=CCn1c2ccccc2c2c3c(c4c5ccccc5[nH]c4c21)C(=O)NC3` showed an IC50 at Protein kinase C (PKC) of 3.5 µM.

In the case of `CCn1c2ccccc2c2c3c(c4c5ccccc5n(CC)c4c21)C(=O)NC3`, the half-maximal inhibitory concentration (IC50) against Protein kinase C (PKC) was 0.2 µM; in assay [1] it was 700 nM; in assay [2] it was above 10 µM; in assay [3], 1200 nM.

As to `Cn1c2ccccc2c2c3c(c4c5ccccc5n(C)c4c21)C(=O)NC3`, the half-maximal inhibitory concentration (IC50) against Protein kinase C (PKC) is 0.45 µM; in assay [1], 5500 nM; in assay [2], above 100 µM; in assay [3], 5800 nM.

Regarding `Cn1c2ccccc2c2c3c(c4c5ccccc5n(CC(F)F)c4c21)CNC3=O`, the half-inhibitory concentration (IC50) was 0.032 µM at Protein kinase C (PKC); 710 nM in assay [1]; above 10 µM in the assay on Splenocyte; 2.4 µM in assay [2]; 440 nM in assay [3].

With `CCn1c2ccccc2c2c3c(c4c5ccccc5n(CCC#N)c4c21)CNC3=O`, the IC50 on Protein kinase C (PKC) is 0.027 µM; in assay [1], 1300 nM; with Splenocyte, above 10 µM; in assay [2], 6.3 µM; in assay [3] it was 1600 nM.

For the compound `Cn1c2ccccc2c2c3c(c4c5ccccc5[nH]c4c21)C(=O)NC3`, the IC50 at Protein kinase C (PKC) is 0.52 µM; in assay [1] it was 400 nM; in assay [2], above 10 µM; in assay [3] it was 1100 nM.

Regarding `O=C(O)CCn1c2ccccc2c2c3c(c4c5ccccc5[nH]c4c21)C(=O)NC3`, the IC50 was 0.59 µM on Protein kinase C (PKC), 21000 nM in assay [1], above 100 µM in assay [2] and 1800 nM in assay [3].

As to `CCCn1c2ccccc2c2c3c(c4c5ccccc5n(C)c4c21)C(=O)NC3`, the IC50 is 0.1 µM on Protein kinase C (PKC); 5100 nM in assay [1]; above 10 µM with Splenocyte; above 30 µM in assay [2]; 11000 nM in assay [3].

Consider `NC(=O)CCn1c2ccccc2c2c3c(c4c5ccccc5[nH]c4c21)C(=O)NC3`, for which the IC50 is 0.11 µM against Protein kinase C (PKC) and 82 nM in assay [3].

For `Cn1c2ccccc2c2c3c(c4c5ccccc5n(CCCN=[N+]=[N-])c4c21)CNC3=O`, the IC50 came out at 0.025 µM against Protein kinase C (PKC) and 450 nM in assay [3].

In the case of `CN1Cc2c(c3c4ccccc4n(C)c3c3c2c2ccccc2n3CCC#N)C1=O`, the IC50 on Protein kinase C (PKC) was above 30 µM; in assay [1] it was above 30000 nM; with Splenocyte, above 10 µM; in assay [2], above 30 µM; in assay [3], above 10000 nM.

For the compound `Cn1c2ccccc2c2c3c(c4c5ccccc5n(CCC#N)c4c21)CNC3=O` [GO-6976], the IC50 in the assay with Splenocyte was above 10 µM; in assay [2], above 100 µM.

Take `CN[C@@H]1C[C@H]2O[C@@](C)([C@@H]1OC)n1c3ccccc3c3c4c(c5c6ccccc6n2c5c31)C(=O)NC4` [STAUROSPORINE]: in the assay on Splenocyte, the IC50 was determined as 0.4 µM.

Take `O=C1NCc2c1c1c3ccccc3[nH]c1c1[nH]c3ccccc3c21` [STAUROSPORINONE]: the IC50 at Protein kinase C (PKC) is 0.68 µM; in assay [1] it was 650 nM; in assay [2], above 10 µM; in assay [3], 2800 nM.
